Reference: ChEMBL document CHEMBL4613264, “Design, Synthesis, and Biological Evaluation of New Peripheral 5HT2A Antagonists for Nonalcoholic Fatty Liver Disease” (J Med Chem, 2020)
Active and inactive are the calls of the source. The calls are words filed in the database; no cut-off is given here.

How the values were obtained:
[1] = biological target: T1, 5-hydroxytryptamine receptor 2A (Homo sapiens, UniProt P28223); experiment: Antagonist activity at 5HT2A receptor (unknown origin) expressed in HEK293 cells assessed as inhibition of serotonin hydrochloride-induced calcium flux preincubated for 1 hr followed by serotonin hydrochloride addition by calcium 6 dye based FLIPR assay; format: functional, cell-based
T1 sequence (P28223 whole entry): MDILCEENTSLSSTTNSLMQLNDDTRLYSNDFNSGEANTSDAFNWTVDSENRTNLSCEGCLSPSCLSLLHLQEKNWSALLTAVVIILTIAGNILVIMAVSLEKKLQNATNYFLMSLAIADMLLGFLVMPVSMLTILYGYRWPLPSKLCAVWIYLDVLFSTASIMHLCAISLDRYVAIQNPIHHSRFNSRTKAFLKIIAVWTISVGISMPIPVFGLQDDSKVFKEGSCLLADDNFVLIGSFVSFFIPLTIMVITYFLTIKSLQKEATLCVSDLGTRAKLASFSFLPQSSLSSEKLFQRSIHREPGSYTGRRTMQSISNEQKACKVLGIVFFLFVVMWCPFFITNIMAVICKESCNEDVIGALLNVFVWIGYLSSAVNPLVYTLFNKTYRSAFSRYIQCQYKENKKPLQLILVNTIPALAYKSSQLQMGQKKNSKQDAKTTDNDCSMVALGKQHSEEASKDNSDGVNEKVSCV

[2] = test system: Vero; experiment: Cytotoxicity against African green monkey Vero cells; format: cell-based; conditions: Chlorocebus sabaeus
[3] = test system: HFL1; experiment: Cytotoxicity against human HFL1 cells; format: cell-based
[4] = Stability in human liver microsomes assessed as parent compound remaining measured after 30 mins; format: ADME, Microsome; conditions: read-out: Stability
[5] = Plasma concentration in ICR mouse at 5 mg/kg, iv measured after 0.5 hrs by LC-MS/MS analysis; format: ADME, organism-based
[6] = Drug level in ICR mouse brain at 5 mg/kg, iv measured after 0.5 hrs by LC-MS/MS analysis; format: ADME, organism-based; conditions: read-out: Drug uptake
[7] = Ratio of drug level in brain to plasma of ICR mouse at 5 mg/kg, iv measured after 0.5 hrs by LC-MS/MS analysis; format: ADME, organism-based; conditions: read-out: BPR
[8] = test system: L929; experiment: Cytotoxicity against mouse L929 cells; format: cell-based
[9] = test system: NIH3T3; experiment: Cytotoxicity against mouse NIH/3T3 cells; format: cell-based
[10] = test system: CHO-K1; experiment: Cytotoxicity against CHOK1 cells; format: cell-based; conditions: Cricetulus griseus
[11] = biological target: hERG (KCNH2) (Homo sapiens, UniProt Q12809); experiment: Inhibition of human ERG at 10 uM relative to control
Chain of hERG (KCNH2) (Q12809 whole entry): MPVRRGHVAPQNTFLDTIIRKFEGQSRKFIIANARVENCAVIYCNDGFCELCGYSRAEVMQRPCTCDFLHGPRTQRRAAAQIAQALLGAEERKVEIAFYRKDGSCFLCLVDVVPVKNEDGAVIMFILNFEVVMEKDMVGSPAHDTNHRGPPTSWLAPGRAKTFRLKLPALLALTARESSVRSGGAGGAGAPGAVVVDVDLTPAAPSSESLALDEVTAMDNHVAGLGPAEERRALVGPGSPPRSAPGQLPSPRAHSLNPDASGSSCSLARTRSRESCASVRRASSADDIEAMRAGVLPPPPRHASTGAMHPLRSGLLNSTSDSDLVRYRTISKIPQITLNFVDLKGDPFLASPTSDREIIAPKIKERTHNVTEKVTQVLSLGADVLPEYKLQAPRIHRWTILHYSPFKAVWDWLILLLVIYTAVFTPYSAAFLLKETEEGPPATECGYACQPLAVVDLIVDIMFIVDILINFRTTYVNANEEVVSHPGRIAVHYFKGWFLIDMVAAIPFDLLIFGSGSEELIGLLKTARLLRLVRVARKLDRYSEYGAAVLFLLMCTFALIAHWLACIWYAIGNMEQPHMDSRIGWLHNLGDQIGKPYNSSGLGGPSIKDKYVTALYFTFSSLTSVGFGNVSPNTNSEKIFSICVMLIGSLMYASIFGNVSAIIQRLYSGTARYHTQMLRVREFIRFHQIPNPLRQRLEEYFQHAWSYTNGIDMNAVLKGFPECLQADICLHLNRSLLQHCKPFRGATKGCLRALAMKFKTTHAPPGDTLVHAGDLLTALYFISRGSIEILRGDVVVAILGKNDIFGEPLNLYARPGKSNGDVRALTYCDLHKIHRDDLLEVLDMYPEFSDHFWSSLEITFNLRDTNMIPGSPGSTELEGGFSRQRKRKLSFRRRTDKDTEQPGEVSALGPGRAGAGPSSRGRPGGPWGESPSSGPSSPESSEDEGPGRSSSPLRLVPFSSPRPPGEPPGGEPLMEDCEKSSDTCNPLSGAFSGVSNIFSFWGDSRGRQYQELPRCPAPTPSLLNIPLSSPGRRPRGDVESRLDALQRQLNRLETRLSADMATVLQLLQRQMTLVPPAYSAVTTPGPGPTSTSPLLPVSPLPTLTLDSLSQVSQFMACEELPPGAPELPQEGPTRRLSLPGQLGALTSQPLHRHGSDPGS

[12] = biological target: T2, 5-hydroxytryptamine receptor 1A (Homo sapiens) (UniProt P08908); experiment: Antagonist activity at human 5HT1A expressed in mouse BA/F3 cells assessed as inhibition of serotonin-induced cAMP accumulation at 1 uM by fluorescence assay relative to control; format: functional, cell-based; conditions: BaF3
T2 sequence (whole entry): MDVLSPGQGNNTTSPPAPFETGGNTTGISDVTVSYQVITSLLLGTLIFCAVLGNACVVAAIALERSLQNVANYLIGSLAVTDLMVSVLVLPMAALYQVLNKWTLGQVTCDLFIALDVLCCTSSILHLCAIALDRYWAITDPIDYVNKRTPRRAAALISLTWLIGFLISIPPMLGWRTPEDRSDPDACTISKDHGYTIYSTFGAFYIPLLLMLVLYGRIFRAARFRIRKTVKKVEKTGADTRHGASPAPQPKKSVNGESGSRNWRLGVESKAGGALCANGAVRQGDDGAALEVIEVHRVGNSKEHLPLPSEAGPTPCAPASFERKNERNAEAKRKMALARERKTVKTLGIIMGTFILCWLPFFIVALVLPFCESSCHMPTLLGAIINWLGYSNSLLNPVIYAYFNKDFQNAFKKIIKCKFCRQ

[13] = biological target: 5-hydroxytryptamine receptor 1B (Homo sapiens) (UniProt P28222); experiment: Antagonist activity at recombinant human 5HT1B expressed in human HeLa cells assessed as inhibition of serotonin-induced cAMP accumulation at 1 uM measured after 5 mins by TR-FRET assay relative to control; format: functional, cell-based
Chain of 5-hydroxytryptamine receptor 1B (Homo sapiens) (P28222 whole entry): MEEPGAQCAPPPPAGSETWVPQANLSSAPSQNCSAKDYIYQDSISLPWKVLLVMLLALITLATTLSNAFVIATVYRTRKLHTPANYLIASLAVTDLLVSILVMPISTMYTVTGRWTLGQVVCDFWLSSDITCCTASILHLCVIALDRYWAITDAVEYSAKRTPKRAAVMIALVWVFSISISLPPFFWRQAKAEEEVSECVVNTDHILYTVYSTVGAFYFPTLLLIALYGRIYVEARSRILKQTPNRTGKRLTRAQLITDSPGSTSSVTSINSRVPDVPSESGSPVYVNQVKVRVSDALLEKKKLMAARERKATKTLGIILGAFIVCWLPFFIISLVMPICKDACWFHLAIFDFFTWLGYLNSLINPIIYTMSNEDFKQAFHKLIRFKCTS

[14] = biological target: T1, 5-hydroxytryptamine receptor 2A; experiment: Antagonist activity at recombinant human full-length 5HT2A receptor expressed in CHOK1 cells assessed as inhibition of serotonin-induced inositol phosphate accumulation at 1 uM measured after 30 mins by TR-FRET assay relative to control; format: functional, cell-based; conditions: CHO-K1
[15] = biological target: 5-hydroxytryptamine receptor 2B (Homo sapiens) (UniProt P41595); experiment: Antagonist activity at recombinant human full-length 5HT2B receptor expressed in CHOK1 cells assessed as inhibition of serotonin-induced inositol phosphate accumulation at 1 uM measured after 30 mins by TR-FRET assay relative to control; format: functional, cell-based; conditions: CHO-K1
Chain of 5-hydroxytryptamine receptor 2B (Homo sapiens) (P41595 whole entry): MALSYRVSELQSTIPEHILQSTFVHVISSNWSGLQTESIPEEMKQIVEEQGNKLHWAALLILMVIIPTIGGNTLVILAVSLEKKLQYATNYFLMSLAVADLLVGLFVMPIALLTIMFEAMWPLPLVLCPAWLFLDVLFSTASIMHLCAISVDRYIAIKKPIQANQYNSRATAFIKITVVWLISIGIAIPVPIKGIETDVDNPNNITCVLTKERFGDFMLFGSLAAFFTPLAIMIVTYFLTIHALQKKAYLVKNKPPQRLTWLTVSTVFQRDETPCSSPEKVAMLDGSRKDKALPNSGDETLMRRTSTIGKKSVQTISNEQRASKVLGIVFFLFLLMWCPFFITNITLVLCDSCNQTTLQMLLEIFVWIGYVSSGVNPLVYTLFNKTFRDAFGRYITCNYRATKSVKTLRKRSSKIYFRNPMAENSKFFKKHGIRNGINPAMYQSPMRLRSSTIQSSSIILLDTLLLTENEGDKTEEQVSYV

[16] = biological target: T3, 5-hydroxytryptamine receptor 2C (Homo sapiens) (UniProt P28335); experiment: Antagonist activity at recombinant human 5HT2C receptor expressed in HEK293 cells assessed as inhibition of serotonin-induced inositol phosphate accumulation at 1 uM measured after 30 mins by HTRF assay relative to control; format: functional, cell-based
T3 sequence (whole entry): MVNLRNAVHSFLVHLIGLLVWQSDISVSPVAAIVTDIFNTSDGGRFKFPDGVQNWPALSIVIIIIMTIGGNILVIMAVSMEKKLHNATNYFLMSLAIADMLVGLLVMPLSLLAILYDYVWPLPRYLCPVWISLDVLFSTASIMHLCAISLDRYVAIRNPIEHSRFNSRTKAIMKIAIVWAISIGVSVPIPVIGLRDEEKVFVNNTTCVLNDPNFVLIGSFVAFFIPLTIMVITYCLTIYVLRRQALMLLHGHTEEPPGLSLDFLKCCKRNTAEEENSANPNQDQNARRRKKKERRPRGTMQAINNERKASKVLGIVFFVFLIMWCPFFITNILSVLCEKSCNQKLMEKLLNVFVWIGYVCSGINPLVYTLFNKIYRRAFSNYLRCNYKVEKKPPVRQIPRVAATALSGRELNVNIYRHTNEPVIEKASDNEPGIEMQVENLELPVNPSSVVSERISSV

[17] = biological target: T4, 5-hydroxytryptamine receptor 3A (Homo sapiens) (UniProt P46098); experiment: Antagonist activity at 5HT3 (unknown origin) at 1 uM relative to control
T4 sequence (whole entry): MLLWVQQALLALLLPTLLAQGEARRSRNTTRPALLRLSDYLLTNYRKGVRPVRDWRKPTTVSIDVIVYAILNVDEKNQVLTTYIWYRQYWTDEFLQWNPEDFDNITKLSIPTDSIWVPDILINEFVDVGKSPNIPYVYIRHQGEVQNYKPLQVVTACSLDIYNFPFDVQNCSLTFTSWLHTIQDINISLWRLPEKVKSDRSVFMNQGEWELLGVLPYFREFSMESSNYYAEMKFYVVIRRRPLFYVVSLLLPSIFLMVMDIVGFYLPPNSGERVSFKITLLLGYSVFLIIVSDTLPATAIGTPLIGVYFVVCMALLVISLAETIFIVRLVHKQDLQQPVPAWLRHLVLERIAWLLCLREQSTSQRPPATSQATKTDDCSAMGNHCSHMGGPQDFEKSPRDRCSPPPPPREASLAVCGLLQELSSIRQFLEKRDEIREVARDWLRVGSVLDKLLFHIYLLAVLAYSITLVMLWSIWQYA

[18] = biological target: 5-hydroxytryptamine receptor 7 (Homo sapiens) (UniProt P34969); experiment: Antagonist activity at recombinant human 5HT7 receptor expressed in CHOK1 cells assessed as inhibition of serotonin-induced cAMP accumulation at 1 uM measured after 30 mins by HTRF assay relative to control; format: functional, cell-based; conditions: CHO-K1
Chain of 5-hydroxytryptamine receptor 7 (Homo sapiens) (P34969 whole entry): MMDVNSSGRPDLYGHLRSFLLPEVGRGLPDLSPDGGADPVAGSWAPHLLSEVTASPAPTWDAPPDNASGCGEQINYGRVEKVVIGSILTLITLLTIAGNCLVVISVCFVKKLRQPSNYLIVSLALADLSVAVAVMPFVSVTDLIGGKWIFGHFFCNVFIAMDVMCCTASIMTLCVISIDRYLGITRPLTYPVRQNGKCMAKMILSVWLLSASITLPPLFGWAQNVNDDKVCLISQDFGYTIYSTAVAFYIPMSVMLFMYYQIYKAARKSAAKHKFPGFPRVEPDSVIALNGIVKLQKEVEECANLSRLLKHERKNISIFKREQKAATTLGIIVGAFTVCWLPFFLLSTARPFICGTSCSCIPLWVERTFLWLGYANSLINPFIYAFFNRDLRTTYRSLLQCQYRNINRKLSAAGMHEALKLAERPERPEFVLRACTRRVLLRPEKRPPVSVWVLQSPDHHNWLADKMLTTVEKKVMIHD

[19] = Half life in Sprague-Dawley rat at 5 mg/kg, iv by LC-MS/MS analysis; format: ADME, organism-based; conditions: in vivo
[20] = AUCt in Sprague-Dawley rat at 5 mg/kg, iv by LC-MS/MS analysis; format: ADME, organism-based; conditions: in vivo
[21] = AUC (infinity) in Sprague-Dawley rat at 5 mg/kg, iv by LC-MS/MS analysis; format: ADME, organism-based; set-up: dose 5 mg/kg, time infinity, route intravenous; conditions: in vivo
[22] = Clearance in Sprague-Dawley rat at 5 mg/kg, iv by LC-MS/MS analysis; format: ADME, organism-based; conditions: in vivo
[23] = Volume of distribution at steady state in Sprague-Dawley rat at 5 mg/kg, iv by LC-MS/MS analysis; format: ADME, organism-based; conditions: in vivo, read-out: Vdss
[24] = test system: Mus musculus; experiment: Protection against 10 week HFD-induced liver disease in C57BL/6J mouse assessed as reduction in liver weight at 50 to 100 mg/kg, ip administered daily for 10 weeks and measured post last dose; format: functional, organism-based
[25] = test system: Mus musculus; experiment: Protection against 10 week HFD-induced liver disease in C57BL/6J mouse assessed as reduction in hepatic triglyceride accumulation at 50 to 100 mg/kg, ip administered daily for 10 weeks and measured post last dose by H and E staining based histological analysis; format: functional, organism-based
[26] = test system: Mus musculus; experiment: Protection against 10 week HFD-induced liver disease in C57BL/6J mouse assessed as reduction in hepatic triglyceride accumulation at 50 to 100 mg/kg, ip administered daily for 10 weeks and measured post last dose by triglyceride reagent based colorimetric analysis; format: functional, organism-based
[27] = test system: Mus musculus; experiment: Protection against 10 week HFD-induced liver disease in C57BL/6J mouse assessed as reduction in body weight gain at 100 mg/kg, ip administered daily for 10 weeks and measured post HFD stimulation; format: functional, organism-based
[28] = test system: Mus musculus; experiment: Protection against 10 week HFD-induced liver disease in C57BL/6J mouse assessed as reduction in blood glucose level at 100 mg/kg, ip administered daily for 10 weeks and measured 9 weeks post HFD stimulation by IPGTT; format: functional, organism-based
[29] = test system: Mus musculus; experiment: Protection against 10 week HFD-induced liver disease in C57BL/6J mouse assessed as reduction in body fat accumulation at 100 mg/kg, ip administered daily for 10 weeks and measured post last dose by NMR analysis; format: functional, organism-based
[30] = test system: Mus musculus; experiment: Protection against 10 week HFD-induced liver disease in C57BL/6J mouse assessed as increase in lead body mass at 100 mg/kg, ip administered daily for 10 weeks and measured post last dose by NMR analysis; format: functional, organism-based
[31] = test system: Mus musculus; experiment: Protection against 10 week HFD-induced liver disease in C57BL/6J mouse assessed as reduction in inguinal white adipose tissue fat mass at 50 to 100 mg/kg, ip administered daily for 10 weeks and measured post last dose by H and E staining based histological analysis; format: functional, organism-based
[32] = test system: Mus musculus; experiment: Protection against 10 week HFD-induced liver disease in C57BL/6J mouse assessed as reduction in epididymal white adipose tissue fat mass at 50 to 100 mg/kg, ip administered daily for 10 weeks and measured post last dose by H and E staining based histological analysis; format: functional, organism-based
[33] = test system: Mus musculus; experiment: Protection against 10 week HFD-induced liver disease in C57BL/6J mouse assessed as reduction in brown adipose tissue fat mass at 50 to 100 mg/kg, ip administered daily for 10 weeks and measured post last dose by H and E staining based histological analysis; format: functional, organism-based
[34] = test system: Mus musculus; experiment: Protection against 10 week HFD-induced liver disease in C57BL/6J mouse assessed as reduction in adipocyte size of inguinal white adipose tissue at 50 to 100 mg/kg, ip administered daily for 10 weeks and measured post last dose by H and E staining based histological analysis; format: functional, organism-based
[35] = test system: Mus musculus; experiment: Protection against 10 week HFD-induced liver disease in C57BL/6J mouse assessed as reduction in crownlike structure appearance in epididymal white adipose tissue at 50 to 100 mg/kg, ip administered daily for 10 weeks and measured post last dose by H and E staining based histological analysis; format: functional, organism-based
[36] = in vitro; conditions: rat, liver microsomes
Description: Stability in rat liver microsomes assessed as parent compound remaining measured after 30 mins

[37] = Permeability of the compound by PAMPA; format: ADME; conditions: read-out: permeability
[38] = Drug level in ICR mouse brain at 10 mg/kg, ip measured after 0.5 hrs by LC-MS/MS analysis; conditions: read-out: Drug uptake
[39] = Plasma concentration in ICR mouse at 10 mg/kg, ip measured after 0.5 hrs by LC-MS/MS analysis
[40] = Ratio of drug level in brain to plasma of ICR mouse at 10 mg/kg, ip measured after 0.5 hrs by LC-MS/MS analysis; conditions: read-out: BPR

## CC(C)COc1ccc(CNC(=O)N(Cc2ccc(F)cc2)C2CCN(C(=O)CC[C@H](N)C(=O)O)CC2)cc1
[1]
  IC50: 0.00835 µM
[2]
  IC50: 54.7 µM
[3]
  IC50: 55.2 µM
[4]
  remaining at 0.5 h: 89%
[5]
  concentration at 0.5 h: 416 ng/mL
[6]
  concentration at 0.5 h: 15.1 ng/g
[7]
  Kp at 0.5 h: 0.038
[8]
  IC50: 64 µM
[9]
  IC50: 18.2 µM
[10]
  IC50: 51 µM
[11]
  inhibition at 10 µM: 18.7%
[12]
  inhibition: -2.8%
[13]
  inhibition: 6%
[14]
  inhibition: 93%
[15]
  inhibition: 7%
[16]
  inhibition: 63.8%
[17]
  inhibition: -5%
[18]
  inhibition: 6.3%
[19]
  half-life: 16.9 h
[20]
  AUC(0-t): 1910 ng·h/mL
[21]
  AUC(0-inf): 2030 ng·h/mL
[22]
  clearance: 41 mL/min/kg
[23]
  Vd: 11 L/kg
[24]
  Activity: Active
[25]
  Activity: Active
[26]
  Activity: Active
[27]
  Activity: Active
[28]
  Activity: Active
[29]
  Activity: Active
[30]
  Activity: Active
[31]
  Activity: Active
[32]
  Activity: Active
[33]
  Activity: Active
[34]
  Activity: Active
[35]
  Activity: Active
[36]
  remaining at 0.5 h: 84%

## CC(C)COc1ccc(CNC(=O)N(Cc2ccc(F)cc2)C2CCN(C(=O)CCC(=O)O)CC2)cc1
[1]
  IC50: 0.317 µM

## CN1CCC(N(Cc2ccc(F)cc2)C(=O)NCc2ccc(OCC(O)CN3CCC(c4noc5cc(F)ccc45)CC3)cc2)CC1 (stereo unspecified)
[1]
  IC50: 0.00039 µM
[37]
  Papp: 4.79 ×10⁻⁶ cm/s
[5]
  concentration at 0.5 h: 455 ng/mL
[6]
  concentration at 0.5 h: 741 ng/g
[7]
  Kp at 0.5 h: 1.63

## CN1CCC(N(Cc2ccc(F)cc2)C(=O)NCc2ccc(OCC(O)CN3CCN(C(=O)OC(C)(C)C)CC3)cc2)CC1 (stereo unspecified)
[1]
  IC50: 0.00194 µM

## CC(C)COc1ccc(CNC(=O)N(Cc2ccc(F)cc2)C2CCN(C)CC2)cc1 [PIMAVANSERIN]
[38]
  concentration at 0.5 h: 3010 ng/g
[39]
  concentration at 0.5 h: 612 ng/mL
[40]
  Kp at 0.5 h: 4.98
